Data from US20250289789A1, “REVERSIBLE LYSINE COVALENT MODIFIERS OF CDK2 AND USES THEREOF” (Terremoto Biosciences, Inc., priority 2023, published 2025).
Read-outs that look alike come from different tables or passages of the source.

Assays:
Type in all cases: cell-based
[1] = biological target: T1, CDK1-NanoLuc fusion with CCNB1 in 293T or 293 cells (Homo sapiens, UniProt P06493); assay: NanoBRET Target Engagement (TE) Intracellular Kinase Assay, CDK1/CCNB1; details: NanoBRET TE intracellular kinase assay, 2-hour incubation, read-out: NanoBRET-CDK1/B1 IC50
T1 construct: host or cells: 293T (ATCC CRL-3216) or 293 (ATCC CRL-1573)
T1 sequence (P06493 whole entry, the tested form may be a part): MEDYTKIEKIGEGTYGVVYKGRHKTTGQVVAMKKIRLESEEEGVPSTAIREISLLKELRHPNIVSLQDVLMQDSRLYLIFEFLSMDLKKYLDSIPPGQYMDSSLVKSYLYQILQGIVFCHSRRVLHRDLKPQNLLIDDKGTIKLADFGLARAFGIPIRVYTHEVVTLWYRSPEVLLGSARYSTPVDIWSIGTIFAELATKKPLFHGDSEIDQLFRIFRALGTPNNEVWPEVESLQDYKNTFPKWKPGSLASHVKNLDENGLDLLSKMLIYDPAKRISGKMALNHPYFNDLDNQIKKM
T1 sequence (P14635 whole entry partner, the tested form may be a part): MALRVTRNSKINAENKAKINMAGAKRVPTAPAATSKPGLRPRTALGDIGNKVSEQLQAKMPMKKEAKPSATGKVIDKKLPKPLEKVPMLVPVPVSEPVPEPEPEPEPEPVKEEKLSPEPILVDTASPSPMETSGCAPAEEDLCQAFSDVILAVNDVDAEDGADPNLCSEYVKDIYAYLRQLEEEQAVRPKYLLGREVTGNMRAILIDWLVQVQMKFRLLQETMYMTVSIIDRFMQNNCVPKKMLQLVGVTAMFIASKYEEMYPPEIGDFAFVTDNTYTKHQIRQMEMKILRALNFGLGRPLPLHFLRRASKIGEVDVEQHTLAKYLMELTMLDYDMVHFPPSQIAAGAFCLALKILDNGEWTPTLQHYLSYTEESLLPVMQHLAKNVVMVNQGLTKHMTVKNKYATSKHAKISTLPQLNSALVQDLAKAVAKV
Procedure: Inhibitory effects of compounds were measured in NanoBRET TE Intracellular Kinase Assay. 293T (ATCC; CRL-3216) or 293 (ATCC; CRL-1573) cell lines were maintained in 90% DMEM and 10% fetal bovine serum at 37° C., 5% CO2, and 95% relative humidity. Cells were trypsinized and resuspended in assay media (99% Opti-MEM I Reduced Serum Medium, no phenol red, and 1% fetal bovine serum). Cells were co-transfected with 1 μg/mL of CDK-NanoLuc Fusion Vector (Promega; NV2701 for CDK1, NV2781 for CDK2, NV2811 for CDK4, NV2841 for CDK6) and 1 μg/mL of the corresponding Cyclin Expression Vector (Promega; NV2601 for CCNB1, NV2641 for CCNE1, NV2621 for CCND1, NV2631 for CCND3) using FuGENE HD Transfection Reagent (Promega; E2311). 40 uL/well of cells with transfection mixture were seeded in 384-well plates at 1.25×10^5 to 2×10^5 cells/mL and incubated for 24 hours at 37° C., 5% CO2, and 95% relative humidity. On the next day, 100 nL of 100 μM NanoBRET Tracer K-10 (Promega; N2640) and 40 nL of 1000× test compounds prepared in DMSO were added to the cells in each well of 384-well plates for a 2-hour incubation at 37° C., 5% CO2, and 95% relative humidity. 20 uL/well of 3× Intracellular TE Nano-Glo Substrate/Inhibitor (Promega; N2162) were added to 384-well plates and incubated for 3 minutes at room temperature. NanoBRET signals (donor emission wavelength at 450 nm, acceptor emission wavelength at 610 nm) were measured using Envision plate reader (PerkinElmer). NanoBRET ratio was calculated by: BRET Ratio=raw signal for acceptor/raw signal for donor. Dose response curve normalized to DMSO control was plotted using four-parameter logistic model for IC50 calculation.

[2] = biological target: T2, CDK2-NanoLuc fusion with CCNE1 in 293T or 293 cells (Homo sapiens, UniProt P24941); assay: NanoBRET Target Engagement (TE) Intracellular Kinase Assay, CDK2/CCNE1; details: 2-hour incubation
T2 construct: host or cells: 293T (ATCC CRL-3216) or 293 (ATCC CRL-1573)

[3] = biological target: T3, CDK4-NanoLuc fusion with CCND1 in 293T or 293 cells (Homo sapiens, UniProt P11802); assay: NanoBRET Target Engagement (TE) Intracellular Kinase Assay, CDK4/CCND1; details: NanoBRET TE intracellular kinase assay, 2-hour incubation, read-out: NanoBRET-CDK4/D1 IC50
T3 construct: host or cells: 293T (ATCC CRL-3216) or 293 (ATCC CRL-1573)
T3 sequence (P11802 whole entry, the tested form may be a part): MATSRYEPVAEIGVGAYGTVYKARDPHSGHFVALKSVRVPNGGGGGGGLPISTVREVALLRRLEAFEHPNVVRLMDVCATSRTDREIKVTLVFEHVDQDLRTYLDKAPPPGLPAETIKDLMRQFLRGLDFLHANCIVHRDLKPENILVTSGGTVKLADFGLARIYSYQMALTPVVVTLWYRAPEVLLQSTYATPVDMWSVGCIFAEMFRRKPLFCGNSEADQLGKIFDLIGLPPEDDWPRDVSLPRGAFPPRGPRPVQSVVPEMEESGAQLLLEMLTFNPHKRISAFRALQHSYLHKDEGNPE
T3 sequence (P24385 whole entry partner, the tested form may be a part): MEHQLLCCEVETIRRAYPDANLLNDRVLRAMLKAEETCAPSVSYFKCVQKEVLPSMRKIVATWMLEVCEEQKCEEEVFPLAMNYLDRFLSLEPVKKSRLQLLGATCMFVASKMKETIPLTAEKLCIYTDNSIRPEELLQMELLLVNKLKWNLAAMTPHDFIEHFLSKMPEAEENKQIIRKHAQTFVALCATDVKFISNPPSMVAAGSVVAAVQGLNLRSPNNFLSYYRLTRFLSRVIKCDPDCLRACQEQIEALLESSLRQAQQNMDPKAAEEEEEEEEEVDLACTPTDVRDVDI

[4] = system: Phospho-Rb Ser807/811 in OVCAR3 cells; assay: OVCAR3 Phospho-Rb Ser807/811 HTRF assay; details: Homo sapiens, OVCAR3 cells, Phospho-Rb Ser807/811 HTRF, 1 hour incubation, read-out: pRb-OVCAR3 IC50
Procedure: Cells were trypsinized and resuspended in 1 mM hydroxyurea (Sigma; H8627), 90% RPMI and 10% fetal bovine serum. […] Dose response curve normalized to DMSO control was plotted using four-parameter logistic model for IC50 calculation.

[5] = NanoBRET TE intracellular kinase assay, read-out: NanoBRET-CDK2/E1 IC50

SMILES	IC50 [1]	IC50 [2, 5]	IC50 [3]	IC50 ([4]; OVCAR-3, 1 h)	IC50 ([2]; NanoBRET-CDK2/E1 IC50, NanoBRET TE intracellular kinase assay)	IC50 ([4]; OVCAR-3)
CC(C)NC(=O)O[C@@H]1CC[C@H](c2cc(NC(=O)COc3ccc(F)c(O)c3C=O)n[nH]2)C1 [Compound 43, (1R,3S)-3-{5-[2-(4-fluoro-2-formyl-3-hydroxyphenoxy)acetamido]-2H-pyrazol-3-yl}cyclopentyl N-isopropylcarbamate; trifluoroacetic acid]	51.2 nM	27.2 nM	> 10000 nM	212 nM	–	–
O=Cc1c(O)cccc1OCC(=O)Nc1cc([C@H]2CC[C@@H](OC(=O)N3CCCC3)C2)[nH]n1 [Compound 85, (1R,3S)-3-{5-[2-(2-formyl-3-hydroxyphenoxy)acetamido]-2H-pyrazol-3-yl}cyclopentyl pyrrolidine-1-carboxylate]	23.7 nM	2.6 nM	> 10000 nM	177 nM	–	–
Cc1nc(-c2cccc(O)c2C=O)sc1C(=O)Nc1cc([C@H]2CC[C@@H](OC(=O)NC(C)C)C2)[nH]n1 [Compound 53, (1R,3S)-3-(3-(2-(2-formyl-3-hydroxyphenyl)-4-methylthiazole-5-carboxamido)-1H-pyrazol-5-yl)cyclopentyl isopropylcarbamate]	21.7 nM	9.39 nM	3660 nM	361 nM	–	–
Cc1cc(O)c(C=O)c(OCC(=O)Nc2cc([C@H]3CC[C@@H](OC(=O)N4C5COCC4C5)C3)[nH]n2)c1 [Compound 199]	19.9 nM	3.76 nM	6500 nM	58.5 nM	–	–
CC(C)NC(=O)O[C@@H]1CC[C@H](c2cc(NC(=O)[C@H]3C[C@H](c4cccc(O)c4C=O)C3)n[nH]2)C1 [Compound 107, (1R,3S)-3-(3-((1r,3S)-3-(2-formyl-3-hydroxyphenyl)cyclobutane-1-carboxamido)-1H-pyrazol-5-yl)cyclopentyl isopropylcarbamate]	12 nM	4.4 nM	224 nM	59.6 nM	–	–
C[C@@H]1CCCN1C(=O)O[C@@H]1CC[C@H](c2cc(NC(=O)COc3cccc(O)c3C=O)n[nH]2)C1 [Compound 101, (1R,3S)-3-{5-[2-(2-formyl-3-hydroxyphenoxy)acetamido]-2H-pyrazol-3-yl}cyclopentyl (2R)-2-methylpyrrolidine-1-carboxylate; trifluoro-acetic acid]	20.3 nM	–	9200 nM	–	5.79 nM	188 nM

These reach a lower IC50 [1]. Values come first.

IC50 [1]	IC50 [2, 5]	IC50 [3]	IC50 ([4]; OVCAR-3, 1 h)	SMILES	IC50 ([2]; NanoBRET-CDK2/E1 IC50, NanoBRET TE intracellular kinase assay)	IC50 ([4]; OVCAR-3)
2.41 nM	2.23 nM	484 nM	17.6 nM	COc1cc(O)c(C=O)c(OCC(=O)Nc2cc([C@H]3CC[C@@H](OC(=O)N4CCCC4(C)C)C3)[nH]n2)c1 [Compound 243]	–	–
4.25 nM	2.27 nM	4170 nM	34.4 nM	COc1cc(O)c(C=O)c(OCC(=O)Nc2cc([C@H]3CC[C@@H](OC(=O)N4CC5CC4C5)C3)[nH]n2)c1 [Compound 228]	–	–
10.3 nM	7.8 nM	4110 nM	85.5 nM	COCc1cc(O)c(C=O)c(-c2cc(C(=O)Nc3cc([C@H]4CC[C@@H](OC(=O)NC(C)C)C4)[nH]n3)n(C)n2)c1 [Compound 71, (1R,3S)-3-(5-{5-[2-formyl-3-hydroxy-5-(methoxymethyl)phenyl]-2-methylpyrazole-3-amido}-2H-pyrazol-3-yl)cyclopentyl N-isopropylcarbamate; trifluoroacetic acid]	–	–
0.61 nM	1.73 nM	1290 nM	18.1 nM	COc1cc(OC)c(C=O)c(OCC(=O)Nc2cc([C@H]3CC[C@@H](OC(=O)N4CCC4(C)C)C3)[nH]n2)c1 [Compound 227]	–	–
3.45 nM	3.82 nM	89.5 nM	68 nM	CC(C)NC(=O)O[C@@H]1CC[C@H](c2cc(NC(=O)c3ccc(C=O)c(O)c3)n[nH]2)C1 [Compound 2, (1R,3S)-3-[5-(4-formyl-3-hydroxybenzamido)-2H-pyrazol-3-yl]cyclopentyl N-isopropylcarbamate; trifluoroacetic acid]	–	–
